Legend:
Type in all cases: in vivo
C57BL/6 mice [1] = experiment: Fibrosis of steatohepatitis caused by non-chemical injury (STZ + high-fat diet model), histology and blood/plasma biochemistry
Description: (§1) In order to simulate an unhealthy diet tendency in humans, such as excess consumption of high caloric food, the example constructs an animal model using […] fed a high fat diet to evaluate the effects of chronic liver injury.
(§2) The assay simulates liver disease caused by a high fat diet through a “Metabolic Syndrome” model. That is, the model is different from conventional chemical induced models caused by toxic components such as CCl4. This model is distinguishable from the models caused by virus or alcohol.
(§3) The establishment of a long term high-fat diet is described as follows: First, the C57BL/6 mice were obtained from Charles River Laboratories Japan (Kanagawa, Japan). Animals were housed under specific-pathogen-free (SPF) conditions. The liver injury was developed in 18 male mice by subcutaneous injection of Streptozotocin (STZ) 2 days after birth (day 2). After 4 weeks, a high-fat commercial rodent diet ad libitum (CLEA JAPAN) were supplied. These mice were randomized into 3 groups before the treatment. The test compound was administered in a volume of 10 ml/kg twice a day for three weeks. In the control group (group A), six […] were fed with vehicle (corn oil from Sigma Chemical Co.) via intubation. Six mice in group B were orally administered vehicle and the test compound at a dose of 48 mg/kg twice a day (96 mg/kg per day).
(§4) (1) HE Staining. The HE staining method is performed as follows: Liver slices are cut from the livers' left side, embedded in Tissue-Tek® OCT™ Compounds (Sakura Finetek, Japan), snap frozen in liquid nitrogen, and stored at −80° C. 5 μm sections are cut, air-dried, fixed in acetone, air dried again and finally washed with phosphate buffered saline (PBS). Then, in the hematoxylin and eosin staining method, liver sections will be prefixed in a Bouin solution (formalin-acetic acid) for one week and then stained with Lillie-Mayer's Hematoxylin (Muto Pure Chemicals, Japan) and eosin solution (Wako, Japan) to visualize the lipid deposition, inflammations, cell necrosis and fibrosis, or stained with Masson's trichromic solution to visualize extra cellular matrix and collagen fibers of liver fibrosis development.
(§5) (2) Sirius Red Staining. The Sirius Red staining method is performed as follows: Liver slices are cut from the livers' left side, embedded in Tissue-Tek® OCT™ Compounds (Sakura Finetek, Japan), snap frozen in liquid nitrogen, and stored at −80° C. 5 μm sections are cut, air-dried, fixed in acetone, air dried again and finally washed with phosphate buffered saline (PBS). Then, liver sections are stained with a Picro-Sirius Red Solution (Waldeck GmbH & KG, Germany) to observe collagen deposition.
(§6) (3) Immunohistochemistry of Collagen Type 3. The immunohistochemistry assay for collagen Type 3 is performed as follows: Liver slices are cut from the livers' left side, embedded in Tissue-Tek® OCT™ Compounds (Sakura Finetek, Japan), snap frozen in liquid nitrogen, and stored at −80° C. 5 μm sections are cut, air-dried, fixed in acetone, air dried again and finally washed with phosphate buffered saline (PBS). For immunohistochemistry, endogenous peroxidase activity will be blocked by using 0.03% H2O2 for 5 minutes, followed by incubation with Block Ace (Dainippon Sumitomo Pharm, Japan) for 10 minutes. The sections will be incubated with the optimal dilution of anti-Type 3 collagen antibody overnight at 4° C. After incubation with an appropriate secondary antibody, the substrate reactions are performed using DAB/H2O2 solution (Nichirei, Japan).
(§7) (1) Whole Blood Glucose. Blood samples were collected in heparinized syringes (Novo-Heparin 5,000 units/5 ml, Mochida Pharmaceutical, Japan) by cardiac puncture, kept on ice and centrifuged at 1,000×g at 4° C. for 15 minutes. The supernatant was collected and stored at −80° C. until use. Blood glucose was measured in whole blood samples using G Checker (Sanko Junyaku Co. Ltd., Japan). […]

C57BL/6 mice [2] = experiment: Reduction of fatty liver condition by Compound 1 with ergosterol versus Compound 1 alone (STZ + high-fat diet model), liver histology; details: Compound 1 48 mg/kg twice a day oral, with or without ergosterol 12 mg/kg twice a day
C57BL/6 mice [3] = experiment: Fatty liver disease caused by non-chemical injury (STZ + high-fat diet Metabolic Syndrome model), histology and blood/plasma biochemistry; details: 48 mg/kg oral twice a day
Description: as §1, §2, §3, §4, §5, §6, §7

Q: What does the source list for `COC1=C(OC)C(O)C(C/C=C(\C)CC/C=C(\C)CCC=C(C)C)C(C)C1=O` (stereo not shown) [Compound 1, 4-hydroxy-2,3-dimethoxy-6-methyl-5 (3,7,11-trimethyl-dodeca-2,6,10-trienyl)-cyclohex-2-enone]?
A: collagen deposition around the central veins and the bile ducts, Sirius red staining (C57BL/6 mice [1]; compared to vehicle Group A): reduced; collagen fibers in the sinusoidal area, collagen Type 3 immunostaining (C57BL/6 mice [1]; compared to vehicle Group A): tended to reduce the thickness and/or the length of the collagen fibers; macro-vesicular fat deposition, HE-stained liver sections (C57BL/6 mice [1]; compared to vehicle Group A): tended to decrease the macro-vesicular fat deposition; plasma ALT level (C57BL/6 mice [1]; vehicle Group A 47±22): 38±11 U/L; plasma AST level (C57BL/6 mice [1]; vehicle Group A 143±42, change not significant): 167±87 U/L; whole blood glucose level (C57BL/6 mice [1]; vehicle Group A 728±109): 566 ± 65 mg/dL; plasma triglyceride (TG) (C57BL/6 mice [1]; vehicle Group A 758±877): 704 ± 450 mg/dL; collagen deposition, Sirius red staining (C57BL/6 mice [2]; vs control group): tended only slightly to decrease the collagen deposition; collagen deposition (thickness of collagen fibers in the sinusoidal area), collagen Type 3 immunostaining (C57BL/6 mice [2]; vs vehicle): tended to reduce the collagen deposition; infiltration of inflammatory cells, HE-stained liver sections (C57BL/6 mice [2]; vs vehicle): did not affect the infiltration of inflammatory cells; macro vesicular fat deposition, HE-stained liver sections (C57BL/6 mice [2]; vs vehicle): tended to decrease the macro vesicular fat deposition; collagen deposition around the central veins and the bile ducts, Sirius red staining (C57BL/6 mice [3]; compared to vehicle Group A): reduced; collagen fibers in the sinusoidal area, collagen Type 3 immunostaining (C57BL/6 mice [3]; compared to vehicle Group A): tended to reduce the thickness and/or the length of the collagen fibers; infiltration of inflammatory cells, HE-stained liver sections (C57BL/6 mice [3]; compared to vehicle Group A): tended to decrease the infiltration of inflammatory cells; macro-vesicular fat deposition, HE-stained liver sections (C57BL/6 mice [3]; compared to vehicle Group A): tended to decrease the macro-vesicular fat deposition; plasma ALT level (C57BL/6 mice [3]; vehicle Group A 64±64): 34±10 U/L; plasma AST level (C57BL/6 mice [3]; vehicle Group A 202±177): 141±35 U/L; whole blood glucose level (C57BL/6 mice [3]; vehicle Group A 636±137): 580 ± 122 mg/dL; plasma triglyceride (TG) (C57BL/6 mice [3]; vehicle Group A 643±402): 229 ± 144 mg/dL

Source: patent US10959963B2, “Method for the treatment of fatty liver disease” (Golden Biotechnology Corporation, priority 2013, dated 2021)
